Laboratory results: ChEMBL document CHEMBL3351300, “GnRH antagonists: the promise of treating sex-hormone-related diseases” (ACS Med Chem Lett, 2014)
pIC50: −log10 of the molar value.

Biological target: T1, Gonadotropin-releasing hormone receptor (Homo sapiens, UniProt P30968)
T1 sequence (P30968 whole entry): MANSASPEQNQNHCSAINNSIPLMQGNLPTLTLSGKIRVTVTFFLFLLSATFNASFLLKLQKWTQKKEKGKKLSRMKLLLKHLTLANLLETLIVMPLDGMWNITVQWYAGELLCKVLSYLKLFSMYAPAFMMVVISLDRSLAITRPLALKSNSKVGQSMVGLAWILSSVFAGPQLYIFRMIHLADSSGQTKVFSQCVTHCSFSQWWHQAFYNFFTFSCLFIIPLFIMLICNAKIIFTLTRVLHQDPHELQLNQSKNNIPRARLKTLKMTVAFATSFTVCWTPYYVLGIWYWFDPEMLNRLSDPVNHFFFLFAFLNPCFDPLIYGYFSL
Assay: Antagonist activity against human GnRH receptor expressed in CHO cells by IP-one HTRF assay
Assay type: cell-based

SMILES | pIC50
O=C(NCc1ncc(C(F)(F)F)cc1Cl)c1ccc2c(c1)C1(CCS(=O)(=O)CC1)C(C1CC1)N2S(=O)(=O)c1cccc(OC(F)(F)F)c1 (single isomer, unassigned; enantiomer 1) | 7.17
O=C(NCc1ncc(Cl)cc1C(F)(F)F)c1ccc2c(c1)C1(CCS(=O)(=O)CC1)C(C1CC1)N2S(=O)(=O)c1ccc(F)cc1 (single isomer, unassigned; enantiomer 1) | 8.48
N#Cc1cccc(S(=O)(=O)N2c3ccc(C(=O)NCc4ncc(C(F)(F)F)cc4F)cc3C3(CCS(=O)(=O)CC3)C2C2CC2)c1 (single isomer, unassigned; enantiomer 2) | 5.64
O=C(NCc1ncc(C(F)(F)F)cc1Cl)c1ccc2c(c1)C1(CCS(=O)(=O)CC1)C(C1CC1)N2S(=O)(=O)c1cccc(OC(F)(F)F)c1 (single isomer, unassigned; enantiomer 2) | 5.38
O=C(NCc1ncc(C(F)(F)F)cc1Cl)c1ccc2c(c1)C1(CCS(=O)(=O)CC1)C(C1CC1)N2S(=O)(=O)c1ccc(Cl)cc1 (single isomer, unassigned; enantiomer 1) | 5.03

The next lines start with the values.

pIC50 | SMILES
6.97 | N#Cc1cccc(S(=O)(=O)N2c3ccc(C(=O)NCc4ncc(C(F)(F)F)cc4F)cc3C3(CCS(=O)(=O)CC3)C2C2CC2)c1 (single isomer, unassigned; enantiomer 1)
5.39 | O=C(NCc1ncc(Cl)cc1C(F)(F)F)c1ccc2c(c1)C1(CCS(=O)(=O)CC1)C(C1CC1)N2S(=O)(=O)c1ccc(F)cc1 (single isomer, unassigned; enantiomer 2)
8.26 | O=C(NCc1ncc(C(F)(F)F)cc1Cl)c1ccc2c(c1)C1(CCS(=O)(=O)CC1)C(C1CC1)N2S(=O)(=O)c1ccc(Cl)cc1 (single isomer, unassigned; enantiomer 2)
